Tests used:
[1] = target: T1, toxic a-synuclein oligomer (type B*) (Homo sapiens, UniProt P37840, N122C); test: dcFCCS and smFRET analysis of binding to toxic a-synuclein oligomer; conditions: peptide labeled with Atto647N; cross-correlation signal and smFRET events
T1 construct: made in house; host or cells: Escherichia coli BL21 (DE3), pET21a
Method: (§1) The relative binding affinities of inhibitors of the present disclosure to toxic a-synuclein oligomers, a-synuclein fibrils, and monomeric a-synuclein can be determined via […] (dcFCCS) as follows.
(§2) Dual-Colour FCCS (dcFCCS) experiments are performed on a Time-Resolved Fluorescence confocal microscope (e.g., MT200 from PicoQuant, Berlin, Germany) with a Time-Correlated Single Photon Counting (TCSPC) unit. Pulsed Interleaved Excitation (PIE) is used at laser powers of 6 μW (481 nm) and 5 μW (637 nm) measured after the dichroic mirror for optimal count rates while avoiding photobleaching and saturation. The coverslip is placed directly on the immersion water on top of the objective (e.g., Super Apochromat 60×NA 1.2 objective with a correction collar). The dichroic 488/640 nm is chosen as the main beam splitter. A 50 μm pinole is used. The emission light beam is split by a 50/50 beamsplitter into 2 detection paths. […] The software is also used for fitting the FCS and FCCS data as well as for a PIE-FRET analysis of the data from which the FRET efficiency (E) is calculated.
(§3) The binding of inhibitors of the present disclosure to toxic a-synuclein oligomers, a-synuclein fibrils, and monomeric a-synuclein can be determined via Förster resonance energy transfer (smFRET) as follows. […]

[2] = system: SH-SY5Y neuroblastoma cells; test: Toxic a-synuclein oligomer induced increase of intracellular reactive oxygen species; format: cell-based, human
Method: A stock solution of 80 μM toxic a-synuclein oligomer (prepared as described in example 3) and a stock solution of 80 μM toxic a-synuclein oligomer and 80 μM of the tested inhibitor are prepared in PBS and incubated for 15 min at 20° C. before being added to cell-containing wells as described below.
Human SH-SY5Y neuroblastoma cells (ATCC, #CRL-2266) cultured in growth medium (Eagle's Minimum Essential Medium (EMEM) supplemented with 10% […] (FBS)) are seeded onto a glass slide mounted with 8 removable wells (e.g., Nunc Lab-Tek II Chamber Slide System, #154941) with 0.5 mL cells/well at 0.5×10^6 cells/mL in growth medium for 24 h at 37° C. and 5% C02. […]
Then, a fluorogenic reagent for oxidative stress detection in live cells (e.g., a CellRox® reagent from Invitrogen, Carlsbad, USA, such as CellRox® Green) is added (final concentration of CellRox® Green 5 μM). […] The intracellular fluorescence of the treated SH-SY5Y cells is then analyzed with a confocal microscope (e.g. a Leica TCS SP5, Leica Microsystems, Wetzlar, Germany, with a HCX PL APO 63×1.4 oil immersion objective) equipped with a camera, using wave lengths for excitation and detection which are suitable for the used oxidative stress detection agent (for CellRox® Green: excitation at 488 nm and detection at 515-560 nm). […] ROS fluorescence are calculated from mean of 100 cells.

[3] = target: T2, non-toxic a-synuclein oligomer (type A*) (Homo sapiens, UniProt P37840, N122C); test: dcFCCS and smFRET analysis of binding to non-toxic a-synuclein oligomer; conditions: peptide labeled with Atto647N
T2 construct: made in house; host or cells: Escherichia coli BL21 (DE3), pET21a

a-synuclein monomer = target: T3, a-synuclein monomer (Homo sapiens, UniProt P37840, N122C); test: dcFCCS and smFRET analysis of binding to a-synuclein monomer; conditions: peptide labeled with Atto647N
T3 construct: made in house; host or cells: Escherichia coli BL21 (DE3), pET21a
Method: as §1, §2, §3

a-synuclein fibrils = target: T4, a-synuclein fibrils (Homo sapiens, UniProt P37840, N122C); test: dcFCCS and smFRET analysis of binding to a-synuclein fibrils; conditions: peptide labeled with Atto647N; cross-correlation signal and smFRET events
T4 construct: made in house; host or cells: Escherichia coli BL21 (DE3), pET21a
Method: as §1, §2, §3

a-synuclein = target: T5, a-synuclein (Homo sapiens, UniProt P37840); test: a-synuclein aggregation kinetics assay (thioflavin-T); format: biochemical; conditions: 70 μM a-synuclein, Th-T, equimolar and substoichiometric peptide concentrations, 32 h
T5 construct: made in house; host or cells: Escherichia coli BL21 (DE3), pET21a
Method: a-synuclein aggregation can be monitored as described in Pujols et al., 2018. Specifically, inhibition of in vitro a-synuclein aggregation at equimolar concentrations of a-synuclein and the tested inhibitor can be determined as follows:
A 96 well microtiter plate is prepared to contain, in each well, a Teflon polyball (3.175 mm in diameter, e.g., from Polysciences Europe GmbH, Eppelheim, Germany) and 150 μl of PBS containing 70 μM a-synuclein (prepared from diluting the 0.22 μm-filtered 210 μM a-synuclein solution described in example 1), 40 μM thioflavin-T and 70 μM of the tested inhibitor. 150 μl/well of PBS containing 70 μM a-synuclein and 40 μM thioflavin-T is used as a control. […] Every two hours, the fluorescence intensity is measured (e.g. using a Victor3.0 Multilabel Reader, PerkinElmer Waltham, MA, USA) by exciting the mixtures at 430-450 nm and measuring the emission intensity at 480-510 nm. […]
Parallel wells (e.g. triplicates) are prepared for each tested inhibitor and the control. For the measurement of each time interval, the measured fluorescence intensity of the respective parallel wells is averaged and then normalized to the maximum fluorescence of the control (a-synuclein without inhibitor) and fitted to the Finke-Watzky curve, accounting for fibril elongation and secondary nucleation. […]

Compound	interaction with toxic a-synuclein oligomer [1]	generation of reactive oxygen species ([2]; coincubated with a-synuclein toxic oligomers, 10 μM)	interaction with non-toxic a-synuclein oligomer [3]	interaction with a-synuclein monomer (a-synuclein monomer)	interaction with a-synuclein fibrils (a-synuclein fibrils)	inhibition of a-synuclein aggregation (a-synuclein)	cytotoxicity of toxic aS oligomers ([2]; neuroblastoma cell culture)
LL-37	interact with	reduce the generation of reactive oxygen species	not	not	interact with	inhibit a-synuclein aggregation	–
CSCC[C@H](N)C(=O)N[C@@H](CCC(=O)O)C(=O)N[C@@H](Cc1ccccc1)C(=O)N[C@H](C(=O)N[C@@H](C)C(=O)N[C@@H](CCCCN)C(=O)N[C@@H](CC(C)C)C(=O)N[C@@H](Cc1ccccc1)C(=O)N[C@@H](CCCCN)C(=O)N[C@@H](Cc1ccccc1)C(=O)N[C@@H](Cc1ccccc1)C(=O)N[C@@H](CCCCN)C(=O)N[C@@H](CC(=O)O)C(=O)N[C@@H](CC(C)C)C(=O)N[C@@H](CC(C)C)C(=O)NCC(=O)N[C@@H](CCCCN)C(=O)N[C@@H](Cc1ccccc1)C(=O)N[C@@H](CC(C)C)C(=O)NCC(=O)N[C@@H](CC(N)=O)C(=O)N[C@@H](CC(N)=O)C(=O)O)C(C)C [PSMα3]	–	–	–	–	–	–	reduced cytotoxicity

From patent US20230340037A1, “INHIBITORS OF ?-SYNUCLEIN AGGREGATION AND USES THEREOF” (U[…] DE BARCELONA, priority 2020, published 2023)
